Results published in patent US8415469B2, “Compounds and methods for kinase modulation, and indications therefor” (Plexxikon Inc., priority 2005, dated 2013).

Tests used:
Format in all cases: biochemical
[1] = biological target: T1, B-Raf (Homo sapiens, UniProt P15056); assay: AlphaScreen kinase assay, B-Raf; settings: read-out: IC50, activity toward kinase B-Raf
T1 construct: purchased Upstate Biotechnology

[2] = biological target: T2, B-Raf V600E (Homo sapiens, UniProt P15056, V600E); assay: AlphaScreen kinase assay, B-Raf V600E; settings: read-out: IC50, activity toward kinase B-Raf V600E
T2 construct: P4254. pFastBacBD-CDC37 BRAF D437-K722-X, V600E; His6 with pFastBac HT leader (TEV site) (N); made in house; host or cells: Sf9 (baculovirus; chaperone CDC37 co-expressed)
T2 sequence (P15056 with tags, fused parts or gaps V600E): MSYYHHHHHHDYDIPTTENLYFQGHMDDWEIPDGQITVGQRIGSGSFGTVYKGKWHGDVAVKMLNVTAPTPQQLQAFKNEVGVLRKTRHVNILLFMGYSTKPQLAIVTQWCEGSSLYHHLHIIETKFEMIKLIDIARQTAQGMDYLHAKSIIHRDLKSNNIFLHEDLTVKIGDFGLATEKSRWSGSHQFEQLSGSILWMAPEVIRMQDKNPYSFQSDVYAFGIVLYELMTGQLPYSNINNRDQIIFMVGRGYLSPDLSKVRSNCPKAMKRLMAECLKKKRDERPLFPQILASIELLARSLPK

[3] = biological target: T3, Btk (Homo sapiens, UniProt Q06187); assay: Z'-Lyte FRET kinase assay (Invitrogen), Btk; settings: read-out: IC50, activity toward kinase Btk
T3 construct: purchased Invitrogen (assay run by Invitrogen)

[4] = biological target: T4, c-Raf-1 (Homo sapiens, UniProt P04049); assay: AlphaScreen kinase assay, c-Raf-1; settings: read-out: IC50, activity toward kinase c-Raf-1
T4 construct: purchased Upstate Biotechnology

[5] = biological target: T5, Fak (Homo sapiens, UniProt Q05397); assay: AlphaScreen kinase assay, Fak; settings: read-out: IC50, activity toward kinase Fak
T5 construct: P1358.pFastBacHtb FAK S411-Q686-X; His6 with pFastBacHTb leader (TEV site) (N); made in house; host or cells: Sf9 (baculovirus)
T5 sequence (Q05397 411-686): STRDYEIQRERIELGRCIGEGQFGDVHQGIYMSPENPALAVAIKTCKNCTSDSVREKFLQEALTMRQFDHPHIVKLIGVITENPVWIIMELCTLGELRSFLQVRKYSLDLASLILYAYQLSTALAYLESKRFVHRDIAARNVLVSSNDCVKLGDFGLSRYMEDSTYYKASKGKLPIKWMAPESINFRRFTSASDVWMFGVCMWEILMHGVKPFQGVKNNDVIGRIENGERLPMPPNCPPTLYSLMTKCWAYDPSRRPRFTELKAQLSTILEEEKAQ

[6] = biological target: T6, FGFR1 (Homo sapiens, UniProt P11362, C488A/C584S); assay: AlphaScreen kinase assay, FGFR1; settings: read-out: IC50, activity toward kinase FGFR
T6 construct: P1351.pET N6 BI-PTP FGFR A458-E765-X C488A, C584S; made in house; host or cells: E. coli (PTP1B co-expressed)
T6 sequence (P11362 458-765 C488A/C584S): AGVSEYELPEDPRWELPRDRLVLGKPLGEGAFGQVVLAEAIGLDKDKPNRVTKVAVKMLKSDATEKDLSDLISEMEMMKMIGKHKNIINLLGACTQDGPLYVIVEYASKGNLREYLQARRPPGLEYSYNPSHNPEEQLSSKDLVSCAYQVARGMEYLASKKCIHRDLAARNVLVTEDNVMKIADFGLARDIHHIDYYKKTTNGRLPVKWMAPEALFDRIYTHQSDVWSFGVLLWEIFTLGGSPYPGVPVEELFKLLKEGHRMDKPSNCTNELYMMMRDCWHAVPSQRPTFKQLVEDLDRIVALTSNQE

[7] = biological target: T7, Flt1 (Homo sapiens, UniProt P17948); assay: AlphaScreen kinase assay, Flt1; settings: read-out: IC50, activity toward kinase Flt1
T7 construct: P1826.pETN6 BI-PTP FLT1 M799-D1165-X WT; His6 (N); made in house; host or cells: E. coli (PTP1B co-expressed)
T7 sequence (P17948 with tags, fused parts or gaps): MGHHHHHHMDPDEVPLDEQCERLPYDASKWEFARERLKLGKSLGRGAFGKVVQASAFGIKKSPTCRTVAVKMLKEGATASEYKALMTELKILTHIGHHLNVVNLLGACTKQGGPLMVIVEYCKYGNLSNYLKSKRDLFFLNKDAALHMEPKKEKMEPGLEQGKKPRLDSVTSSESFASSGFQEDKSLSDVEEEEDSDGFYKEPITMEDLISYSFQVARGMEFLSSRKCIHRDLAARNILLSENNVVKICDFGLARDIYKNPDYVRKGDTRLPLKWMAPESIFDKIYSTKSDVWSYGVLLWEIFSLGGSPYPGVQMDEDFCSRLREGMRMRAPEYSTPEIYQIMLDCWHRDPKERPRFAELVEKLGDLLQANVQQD

[8] = biological target: T8, Fms (Homo sapiens, UniProt P07333); assay: AlphaScreen kinase assay, Fms; settings: read-out: IC50, activity toward kinase Fms
T8 construct: purchased Upstate Biotechnology
T8 sequence (P07333 20-972): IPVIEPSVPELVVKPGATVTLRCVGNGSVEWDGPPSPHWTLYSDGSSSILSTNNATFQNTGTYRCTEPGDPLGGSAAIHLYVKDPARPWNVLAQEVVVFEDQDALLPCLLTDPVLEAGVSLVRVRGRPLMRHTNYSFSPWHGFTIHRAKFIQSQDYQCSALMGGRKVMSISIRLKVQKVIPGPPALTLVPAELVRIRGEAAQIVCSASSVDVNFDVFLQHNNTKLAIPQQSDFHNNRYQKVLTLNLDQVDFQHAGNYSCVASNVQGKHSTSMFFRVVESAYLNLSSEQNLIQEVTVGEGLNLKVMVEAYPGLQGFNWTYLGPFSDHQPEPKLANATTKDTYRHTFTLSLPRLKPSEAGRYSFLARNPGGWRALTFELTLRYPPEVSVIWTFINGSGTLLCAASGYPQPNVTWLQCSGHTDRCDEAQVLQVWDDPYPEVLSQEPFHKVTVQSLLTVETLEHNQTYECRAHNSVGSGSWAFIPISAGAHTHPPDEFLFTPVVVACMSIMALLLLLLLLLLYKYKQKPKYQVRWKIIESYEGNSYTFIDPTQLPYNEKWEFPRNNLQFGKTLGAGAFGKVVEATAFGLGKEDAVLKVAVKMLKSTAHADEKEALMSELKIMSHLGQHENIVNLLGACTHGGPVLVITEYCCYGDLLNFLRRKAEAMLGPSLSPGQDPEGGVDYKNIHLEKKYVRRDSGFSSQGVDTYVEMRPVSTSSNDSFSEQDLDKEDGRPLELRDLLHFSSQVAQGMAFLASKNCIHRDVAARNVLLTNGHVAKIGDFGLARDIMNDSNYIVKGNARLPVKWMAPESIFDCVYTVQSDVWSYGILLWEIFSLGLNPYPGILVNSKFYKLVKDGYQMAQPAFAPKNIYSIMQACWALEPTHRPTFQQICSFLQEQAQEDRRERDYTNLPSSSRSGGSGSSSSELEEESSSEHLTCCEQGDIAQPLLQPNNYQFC

[9] = biological target: T9, Jnk1 (Homo sapiens, UniProt P45983); assay: AlphaScreen kinase assay, Jnk1; settings: read-out: IC50, activity toward kinase Jnk1
T9 construct: purchased Upstate Biotechnology
T9 sequence (P45983 whole entry): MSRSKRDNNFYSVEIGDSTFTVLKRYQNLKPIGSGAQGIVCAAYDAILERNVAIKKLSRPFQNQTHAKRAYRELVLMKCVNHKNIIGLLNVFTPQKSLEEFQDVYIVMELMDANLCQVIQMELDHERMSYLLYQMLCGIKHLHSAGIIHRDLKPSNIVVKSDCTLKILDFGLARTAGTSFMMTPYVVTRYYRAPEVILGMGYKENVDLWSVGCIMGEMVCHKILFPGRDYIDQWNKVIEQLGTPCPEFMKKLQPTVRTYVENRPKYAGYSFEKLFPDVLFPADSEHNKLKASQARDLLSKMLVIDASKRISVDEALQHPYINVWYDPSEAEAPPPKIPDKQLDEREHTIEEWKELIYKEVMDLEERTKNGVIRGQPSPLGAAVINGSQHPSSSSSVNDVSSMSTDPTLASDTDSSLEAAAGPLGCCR

[10] = biological target: T10, Kit (Homo sapiens, UniProt P10721); assay: AlphaScreen kinase assay, Kit; settings: read-out: IC50, activity toward kinase Kit
T10 construct: P1332.N6 BI PTP KIT M552-K948-X COD; His6 (N); made in house; host or cells: E. coli (PTP1B co-expressed)
T10 sequence (P10721 with tags, fused parts or gaps): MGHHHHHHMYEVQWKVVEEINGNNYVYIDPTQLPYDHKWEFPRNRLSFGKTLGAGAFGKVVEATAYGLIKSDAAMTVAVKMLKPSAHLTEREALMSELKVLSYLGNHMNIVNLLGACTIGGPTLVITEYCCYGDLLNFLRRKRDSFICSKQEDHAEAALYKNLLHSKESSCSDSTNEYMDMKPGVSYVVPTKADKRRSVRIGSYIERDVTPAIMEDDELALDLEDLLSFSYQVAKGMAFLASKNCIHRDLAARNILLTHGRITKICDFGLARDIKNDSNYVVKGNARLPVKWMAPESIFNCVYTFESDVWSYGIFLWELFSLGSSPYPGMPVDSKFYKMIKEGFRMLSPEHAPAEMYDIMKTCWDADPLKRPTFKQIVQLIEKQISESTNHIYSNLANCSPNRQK

[11] = biological target: T11, Ret (Homo sapiens, UniProt P07949); assay: AlphaScreen kinase assay, Ret; settings: read-out: IC50, activity toward kinase Ret
T11 construct: P1378.pET-SF BI-PTP RET H661-R1012 HIS; made in house
T11 sequence (P07949 with tags, fused parts or gaps): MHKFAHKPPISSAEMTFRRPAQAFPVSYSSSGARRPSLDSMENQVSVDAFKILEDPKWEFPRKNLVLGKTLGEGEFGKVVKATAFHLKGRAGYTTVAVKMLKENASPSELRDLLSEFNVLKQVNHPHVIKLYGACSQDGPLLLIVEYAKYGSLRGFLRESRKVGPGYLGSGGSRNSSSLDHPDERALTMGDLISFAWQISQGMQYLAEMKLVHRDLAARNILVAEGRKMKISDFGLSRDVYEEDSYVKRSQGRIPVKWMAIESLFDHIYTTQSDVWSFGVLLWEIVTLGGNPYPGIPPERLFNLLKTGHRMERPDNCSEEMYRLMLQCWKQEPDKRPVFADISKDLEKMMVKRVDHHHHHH

[12] = biological target: T12, Src (Homo sapiens, UniProt P12931); assay: AlphaScreen kinase assay, Src; settings: read-out: IC50, activity toward kinase Src
T12 construct: P1144. pET-N6 BI-PTP SRC V86-L536-X; made in house
T12 sequence (P12931 with tags, fused parts or gaps): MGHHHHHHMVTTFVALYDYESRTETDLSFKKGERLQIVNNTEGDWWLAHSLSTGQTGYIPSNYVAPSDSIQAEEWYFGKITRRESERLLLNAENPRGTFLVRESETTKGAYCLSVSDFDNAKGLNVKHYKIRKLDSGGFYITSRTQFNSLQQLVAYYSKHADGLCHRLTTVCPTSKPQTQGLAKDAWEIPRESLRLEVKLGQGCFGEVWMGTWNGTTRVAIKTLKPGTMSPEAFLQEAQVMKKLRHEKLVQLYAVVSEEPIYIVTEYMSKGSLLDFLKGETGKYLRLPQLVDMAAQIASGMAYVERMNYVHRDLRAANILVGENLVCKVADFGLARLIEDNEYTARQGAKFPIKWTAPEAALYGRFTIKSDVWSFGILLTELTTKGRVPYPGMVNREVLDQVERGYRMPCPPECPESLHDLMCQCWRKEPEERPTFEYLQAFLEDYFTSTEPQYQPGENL

[13] = biological target: T13, Jnk3 (Homo sapiens, UniProt P53779); assay: AlphaScreen kinase assay, Jnk3; settings: read-out: IC50, activity toward kinase Jnk3
T13 construct: purchased Upstate Biotechnology
T13 sequence (P53779 whole entry): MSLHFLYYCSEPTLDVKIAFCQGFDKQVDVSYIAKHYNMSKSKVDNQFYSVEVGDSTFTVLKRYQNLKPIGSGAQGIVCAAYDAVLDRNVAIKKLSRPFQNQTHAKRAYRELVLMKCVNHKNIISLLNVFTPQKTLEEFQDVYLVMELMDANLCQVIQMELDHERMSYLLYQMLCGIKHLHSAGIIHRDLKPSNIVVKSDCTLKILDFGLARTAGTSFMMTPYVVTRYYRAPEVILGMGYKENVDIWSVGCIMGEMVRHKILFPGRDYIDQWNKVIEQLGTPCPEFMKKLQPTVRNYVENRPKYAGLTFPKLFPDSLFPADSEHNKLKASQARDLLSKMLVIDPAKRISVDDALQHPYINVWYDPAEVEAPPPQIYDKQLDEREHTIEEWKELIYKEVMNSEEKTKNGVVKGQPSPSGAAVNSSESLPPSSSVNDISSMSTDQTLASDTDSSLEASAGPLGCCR

[14] = biological target: T14, Jnk2 (Homo sapiens, UniProt P45984); assay: AlphaScreen kinase assay, Jnk2; settings: read-out: IC50, activity toward kinase Jnk2
T14 construct: purchased Roche Protein Expression Group (Indianapolis, IN)
T14 sequence (P45984 whole entry): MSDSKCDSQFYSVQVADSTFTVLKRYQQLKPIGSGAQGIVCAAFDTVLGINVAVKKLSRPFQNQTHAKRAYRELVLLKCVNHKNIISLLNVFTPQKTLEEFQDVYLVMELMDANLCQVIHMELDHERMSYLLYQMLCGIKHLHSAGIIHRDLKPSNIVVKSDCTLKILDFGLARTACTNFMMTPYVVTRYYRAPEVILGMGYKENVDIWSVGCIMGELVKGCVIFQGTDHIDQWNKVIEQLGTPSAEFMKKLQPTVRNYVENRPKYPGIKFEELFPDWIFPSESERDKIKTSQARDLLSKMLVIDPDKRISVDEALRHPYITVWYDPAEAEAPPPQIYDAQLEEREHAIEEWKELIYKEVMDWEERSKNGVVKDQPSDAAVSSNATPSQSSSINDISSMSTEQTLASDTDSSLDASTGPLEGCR
Excerpt: AlphaScreen assay was used to screen additional kinases. The assay is similarly dependent on the phosphorylation of a peptide substrate. In this assay, an antibody that recognizes phosphorylated substrate is bound to an acceptor bead. The peptide substrate is attached to biotin, which binds to a donor head that contains streptavidin. Thus phosphorylated substrate is bound by antibody and streptavidin, bringing the donor and acceptor heads into close proximity when kinase is not inhibited. The donor produces singlet oxygen which results in emission from the acceptor when they are in close proximity. Conversely, when kinase is inhibited, the donor and acceptor beads are not associated and the emission from the acceptor is reduced.
AlphaScreen assays were done using compounds dissolved in DMSO to a concentration of 20 mM. The compounds were diluted accordingly to the desired final concentrations in each sample well, using 1:3 serial dilution for a total of 8 concentration points.

Measured: IC50

T1 sequence (P15056 whole entry): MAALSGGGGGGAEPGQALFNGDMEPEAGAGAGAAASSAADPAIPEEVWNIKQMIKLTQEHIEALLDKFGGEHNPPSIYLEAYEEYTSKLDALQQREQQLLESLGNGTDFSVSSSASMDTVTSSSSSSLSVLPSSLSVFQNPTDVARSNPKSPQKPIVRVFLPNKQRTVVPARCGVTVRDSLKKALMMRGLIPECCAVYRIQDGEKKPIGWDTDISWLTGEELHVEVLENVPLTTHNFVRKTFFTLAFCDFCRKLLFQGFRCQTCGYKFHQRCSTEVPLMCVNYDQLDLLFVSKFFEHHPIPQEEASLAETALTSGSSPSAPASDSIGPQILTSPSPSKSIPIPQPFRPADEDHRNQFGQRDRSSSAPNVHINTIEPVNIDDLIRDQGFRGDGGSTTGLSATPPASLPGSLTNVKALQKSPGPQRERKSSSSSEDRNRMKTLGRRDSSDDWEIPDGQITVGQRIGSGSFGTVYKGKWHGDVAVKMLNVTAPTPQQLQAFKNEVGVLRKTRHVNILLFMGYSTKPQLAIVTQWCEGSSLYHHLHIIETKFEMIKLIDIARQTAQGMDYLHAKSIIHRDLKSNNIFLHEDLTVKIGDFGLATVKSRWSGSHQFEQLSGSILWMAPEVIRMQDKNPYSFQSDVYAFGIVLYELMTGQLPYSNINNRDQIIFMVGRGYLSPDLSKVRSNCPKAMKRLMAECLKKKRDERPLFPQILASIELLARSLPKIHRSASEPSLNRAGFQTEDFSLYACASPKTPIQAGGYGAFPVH

O=C(Nc1ccc(F)c(C(=O)c2c[nH]c3ncc(-c4cccnc4)cc23)c1F)OCc1ccccc1 [Compound P-0302, [2,4-Difluoro-3-(5-pyridin-3-yl-1H-pyrrolo[2,3-b]pyridine-3-carbonyl)-phenyl]-carbamic acid benzyl ester]
not listed: [13] | [14]
≤ 10 µM: all other assays above

CCCS(=O)(=O)Nc1ccc(F)c(C(=O)c2c[nH]c3ncc(-c4cccc(C(=O)O)c4)cc23)c1F [Compound P-1266, 3-{3-[2,6-Difluoro-3-(propane-1-sulfonylamino)-benzoyl]-1H-pyrrolo[2,3-b]pyridin-5-yl}-benzoic acid]
not listed: [4] | [11] | [13] | [14]
≤ 10 µM: all other assays above

CCCS(=O)(=O)Nc1ccc(F)c(C(=O)c2c[nH]c3ncc(/C=C/C(=O)O)cc23)c1F [Compound P-1269, 3-3-[2,6-difluoro-3-(propane-1-sulfonylamino)-benzoyl]-1H-pyrrolo[2,3-b]pyridin-5-yl-acrylic acid]
not listed: [4] | [9] | [11] | [13] | [14]
≤ 10 µM: all other assays above

COc1ccc(C(=O)c2c[nH]c3ncc(-c4cccc(C(N)=O)c4)cc23)c(F)c1 [Compound P-1346]
not listed: [4] | [7] | [11] | [14]
≤ 10 µM: all other assays above

COc1ccc(F)c(C(=O)c2c[nH]c3ncc(-c4cccnc4)cc23)c1F [Compound P-1388, (2,6-Difluoro-3-methoxy-phenyl)-(5-pyridin-3-yl-1H-pyrrolo[2,3-b]pyridin-3-yl)-methanone]
not listed: [7] | [9] | [11] | [13] | [14]
≤ 10 µM: all other assays above

O=C(O)/C=C/c1ccc(-c2cnc3[nH]cc(C(=O)c4ccccc4F)c3c2)cc1 [Compound P-1473]
not listed: [4] | [7] | [10] | [11] | [14]
≤ 10 µM: all other assays above

CCNC(=O)COc1ccc(F)c(Cc2c[nH]c3ncc(-c4cccnc4)cc23)c1F [Compound P-1475, 2-[2,4-Difluoro-3-(5-pyridin-3-yl-1H-pyrrolo[2,3-b]pyridin-3-ylmethyl)-phenoxy]-N-ethyl-acetamide]
not listed: [4] | [11] | [14]
≤ 10 µM: all other assays above

Cc1cccc(C)c1C(=O)c1c[nH]c2ncc(-c3cccnc3)cc12 [Compound P-1480]
≤ 10 µM: [1] | [2] | [3] | [5] | [6] | [8] | [10] | [12]

Cc1cccc(C)c1Cc1c[nH]c2ncc(-c3cccnc3)cc12 [Compound P-1481, 3-(2,6-Dimethyl-benzyl)-5-pyridin-3-yl-1H-pyrrolo[2,3-b]pyridine]
≤ 10 µM: [1] | [2] | [3] | [5] | [6] | [8] | [10] | [12]

O=C(c1c(F)cccc1F)c1c[nH]c2ncc(-c3cccnc3)cc12 [Compound P-1485]
≤ 10 µM: [1] | [2] | [3] | [5] | [6] | [8] | [13] | [12]

O=C(Nc1cccc(C(=O)c2c[nH]c3ncc(-c4cccnc4)cc23)c1)Nc1cccc(C(F)(F)F)c1F [Compound P-1728, 1-(2-Fluoro-3-trifluoromethyl-phenyl)-3-[3-(5-pyridin-3-yl-1H-pyrrolo[2,3-b]pyridine-3-carbonyl)-phenyl]-urea]
≤ 10 µM: [1] | [2] | [8] | [14]
